Experimental data published in ChEMBL document CHEMBL1201862, “PubChem BioAssay data set” (2004).
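These data come from cells grown in 96-well plates and exposed to compound for 48 hours at five concentrations. GI50 marks 50% less growth.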 Active and inactive are the calls of the source. Rule as the data show it: active = GI50 up to about 1.1 µM and inactive = higher.

Tests used:
Experiment in all cases: growth of human tumour cells (NCI), 48 h
[1] = test system: SF-295
[2] = test system: UO-31
[3] = test system: MOLT-4
[4] = test system: LOX IMVI
[5] = test system: SF-539
[6] = test system: SNB-19
[7] = test system: SNB-75
[8] = test system: 786-0
[9] = test system: DLD-1
[10] = test system: OVCAR-3
[11] = test system: OVCAR-5
[12] = test system: HOP-18
[13] = test system: NCI-H23
[14] = test system: M14
[15] = test system: HT-29
[16] = test system: SK-MEL-28
[17] = test system: TK-10
[18] = test system: RPMI-8226
[19] = test system: CCRF-CEM
[20] = test system: UACC-62
[21] = test system: A549
[22] = test system: NCI-H226
[23] = test system: A498
[24] = test system: SN12C
[25] = test system: SR
[26] = test system: IGROV-1
[27] = test system: SK-MEL-5
[28] = test system: SNB-78
[29] = test system: NCI-H460
[30] = test system: OVCAR-4
[31] = test system: M19-MEL
[32] = test system: HCT-15
[33] = test system: HCC 2998
[34] = test system: CAKI-1
[35] = test system: ACHN
[36] = test system: OVCAR-8
[37] = test system: HCT-116
[38] = test system: UACC-257
[39] = test system: RXF 393
[40] = test system: COLO 205
[41] = test system: SF-268
[42] = test system: HOP-92
[43] = test system: K562
[44] = test system: HOP-62
[45] = test system: LXFL 529
[46] = test system: DMS-114
[47] = test system: SW-620
[48] = test system: Malme-3M
[49] = test system: EKVX
[50] = test system: HL-60
[51] = test system: SK-MEL-2
[52] = test system: NCI-H522
[53] = test system: SK-OV-3
[54] = test system: U-251
[55] = test system: KM12
[56] = test system: DMS-273
[57] = test system: KM-20L2

c1ccc2c(c1)[nH]c1c[nH]c3c4cccnc4nc-3c12
GI50 [1]: 23.4 µM (inactive)
GI50 [2]: 15.3 µM (inactive)
GI50 [3]: 24.4 µM (inactive)
GI50 [4]: 19.5 µM (inactive)
GI50 [5]: 21.4 µM (inactive)
GI50 [6]: 18.3 µM (inactive)
GI50 [7]: 18.2 µM (inactive)
GI50 [8]: 17.1 µM (inactive)
GI50 [9]: 15.6 µM (inactive)
GI50 [10]: 17.1 µM (inactive)
GI50 [11]: 20.3 µM (inactive)
GI50 [12]: 18.6 µM (inactive)
GI50 [13]: 25.5 µM (inactive)
GI50 [14]: 15 µM (inactive)
GI50 [15]: 19.3 µM (inactive)
GI50 [16]: 21.2 µM (inactive)
GI50 [17]: 12.7 µM (inactive)
GI50 [18]: 25.3 µM (inactive)
GI50 [19]: 24.7 µM (inactive)
GI50 [20]: 15.1 µM (inactive)
GI50 [21]: 20 µM (inactive)
GI50 [22]: 25.2 µM (inactive)
GI50 [23]: 33.3 µM (inactive)
GI50 [24]: 18.6 µM (inactive)
GI50 [25]: 17.7 µM (inactive)
GI50 [26]: 18.1 µM (inactive)
GI50 [27]: 19.4 µM (inactive)
GI50 [28]: 23.4 µM (inactive)
GI50 [29]: 21.5 µM (inactive)
GI50 [30]: 18.2 µM (inactive)
GI50 [31]: 16.9 µM (inactive)
GI50 [32]: 15.3 µM
GI50 [33]: 19 µM (inactive)
GI50 [34]: 14.5 µM (inactive)
GI50 [35]: 11.3 µM (inactive)
GI50 [36]: 17.1 µM (inactive)
GI50 [37]: 17.1 µM (inactive)
GI50 [38]: 23.9 µM (inactive)
GI50 [39]: 18.7 µM (inactive)
GI50 [40]: 15 µM (inactive)
GI50 [41]: 19.7 µM (inactive)
GI50 [42]: 28.2 µM (inactive)
GI50 [43]: 21.5 µM (inactive)
GI50 [44]: 29.9 µM (inactive)
GI50 [45]: 18.5 µM (inactive)
GI50 [46]: 19 µM (inactive)
GI50 [47]: 18.1 µM (inactive)
GI50 [48]: 25.6 µM (inactive)
GI50 [49]: 19.9 µM (inactive)
GI50 [50]: 17.5 µM (inactive)

CCOC(=O)/C(O)=C(/c1n[nH]c(=O)c2ccccc12)[N+](=O)[O-]
GI50 [1]: > 100 µM (inactive)
GI50 [2]: > 100 µM (inactive)
GI50 [3]: > 100 µM (inactive)
GI50 [4]: > 100 µM (inactive)
GI50 [5]: > 100 µM (inactive)
GI50 [6]: > 100 µM (inactive)
GI50 [7]: > 100 µM (inactive)
GI50 [8]: > 100 µM (inactive)
GI50 [9]: > 100 µM (inactive)
GI50 [10]: > 100 µM (inactive)
GI50 [11]: > 100 µM (inactive)
GI50 [12]: > 100 µM (inactive)
GI50 [13]: > 100 µM (inactive)
GI50 [14]: > 100 µM (inactive)
GI50 [15]: > 100 µM (inactive)
GI50 [16]: > 100 µM (inactive)
GI50 [17]: > 100 µM (inactive)
GI50 [18]: > 100 µM (inactive)
GI50 [19]: > 100 µM (inactive)
GI50 [20]: > 100 µM (inactive)
GI50 [51]: > 100 µM (inactive)
GI50 [21]: > 100 µM (inactive)
GI50 [22]: > 100 µM (inactive)
GI50 [23]: > 100 µM (inactive)
GI50 [24]: > 100 µM (inactive)
GI50 [52]: > 100 µM (inactive)
GI50 [26]: > 100 µM (inactive)
GI50 [27]: > 100 µM (inactive)
GI50 [28]: > 100 µM (inactive)
GI50 [29]: > 100 µM (inactive)
GI50 [30]: > 100 µM (inactive)
GI50 [31]: > 100 µM (inactive)
GI50 [32]: > 100 µM
GI50 [33]: > 100 µM (inactive)
GI50 [35]: > 100 µM (inactive)
GI50 [53]: > 100 µM (inactive)
GI50 [36]: > 100 µM (inactive)
GI50 [37]: > 100 µM (inactive)
GI50 [38]: > 100 µM (inactive)
GI50 [39]: > 100 µM (inactive)
GI50 [54]: > 100 µM (inactive)
GI50 [40]: > 100 µM (inactive)
GI50 [41]: > 100 µM (inactive)
GI50 [42]: > 100 µM (inactive)
GI50 [55]: > 100 µM (inactive)
GI50 [43]: > 100 µM (inactive)
GI50 [44]: > 100 µM (inactive)
GI50 [45]: > 100 µM (inactive)
GI50 [56]: > 100 µM (inactive)
GI50 [46]: > 100 µM (inactive)
GI50 [57]: > 100 µM (inactive)
GI50 [47]: > 100 µM (inactive)
GI50 [48]: > 100 µM (inactive)
GI50 [49]: 70.8 µM (inactive)
GI50 [50]: > 100 µM (inactive)
